Assay results: patent publication US20020160055A1, “Methods for treating human immunodeficiency virus infections with gallium compositions” (priority 2000, published 2002)

What was measured:
[1] = tested on: HIV; conditions: results of U.S. Pat. No. 5,525,598; cited from earlier work
[2] = tested on: HIV-1; assay: Inhibition of HIV replication in PHA/IL2 stimulated PBMC's (p24 antigen in culture supernatants); assay type: cell-based
Description: FIG. 1—Gallium Nitrate and Hydroxyurea Inhibition of HIV-1 Replication. PHA/IL-2 stimulated human PBMC's (1×10^6), and MT-2 cells (1×10^6) were grown and maintained in RPMI 1640 media containing 20% fetal calf sera, glutamine and antibiotics (Thelander & Reichard, 1979). Experiments were carried out in duplicate, and experiments repeated a minimum of three times. Gallium nitrate (Ga) was obtained from the National Cancer Institute. Hydroxyurea (HU) was obtained from Sigma Chemicals (St. Louis, Mo.). Ga and HU were added to PBMC's 24 hrs prior to infection, and cells were washed 16 hrs post-infection. Culture supernatants were obtained 4 and 7 days post-infection for p24 antigen measurement.
(§1) Various concentrations of Ga or HU were added to PHA/IL2 stimulated PBMC's 24 hours prior to infection with HIV. Following infection, cells were washed and culture supernatants were obtained 4 and 7 days post-infection.
HIV (Catalog# 1073, NIH AIDS Reference Program) was used in these studies. […] Viral replication was measured by determining the concentration of p24 antigen in culture supernatants (Organon-Teknika), and by visually observing a reduction in syncytia formation (Cook et al., 1997). In addition, a quantitative measurement of syncytia induction—inhibition was employed (described below). […]

[3] = tested on: PBMC; assay: Effects on PBMC proliferation and viability (Trypan blue staining and counting); assay type: cell-based, human; conditions: 48 hrs
Description: FIG. 4—Effects of Gallium Nitrate on PBMC Proliferation and Viability. Experiments were carried out in duplicate, and experiments repeated a minimum of three times. Gallium nitrate (Ga) was obtained from the National Cancer Institute. Cells were incubated in Ga at concentrations noted, and were stained at 48 hrs with Trypan blue and counted.
as §1

In the case of `Cc1cn([C@H]2C[C@H](N=[N+]=[N-])[C@@H](CO)O2)c(=O)[nH]c1=O` [3′-azido-2,3′-deoxythymidine], the therapeutic index [1] is listed as 3680.
With `O=[N+]([O-])[O-].O=[N+]([O-])[O-].O=[N+]([O-])[O-].[Ga+3]` [Ga, Gallium nitrate] the “fold lower IC50 of Ga than HU” value ([2]; present culture system) was “approximately 15 fold” and the “effect on cellular proliferation or viability at concentrations inhibiting HIV replication” value [3] was “did not inhibit cellular proliferation or viability”.
In the case of `NC(=O)NO` [HU, Hydroxyurea], the IC50 ([2]; Human immunodeficiency virus 1, PHA/IL2 stimulated PBMC's, added 24 hours prior to infection, supernatants 4 and 7 days post-infection) is reported as 120 µM.
